One assay has as its system HIV-1NL4-3 wt. Briefly: Light assay with wild-type HI reporter virus in MT4 7F2 cells. The class given is cell-based. The settings on record: Human immunodeficiency virus 1, 2% FCS. As to the method:
(§1) For the mixture for a 96-well MTP, 3 million MT4 7F2 cells are pelleted, suspended in 1 ml of RPMI 1640 medium without phenol red (Invitrogen, Karlsruhe, Germany)/10% FCS/10% AIM-V (Invitrogen, Karlsruhe, Germany) and incubated together with a suitable amount of the corresponding HIV-1NL4-3 reporter virus at 37° C. for 2 hours (pellet infection). Unadsorbed viruses are subsequently washed out with PBS, and the infected cells are pelleted again and suspended in 8 ml of RPMI 1640 medium without phenol red/2% or 10% FCS/10% AIM-V. 80 μl thereof are pipetted into each well of a white 96-well MTP with 20 μl of test substance in suitable dilution. To avoid edge effects, the wells on the edge of the MTP are not used for substance dilutions. The second vertical row of the MTP contains only infected cells (virus control) and the eleventh vertical row only uninfected cells (cell control), in each case in RPMI 1640 medium without phenol red/2% or 10% FCS/10% AIM-V. The other wells of the MTP contain the compounds of the invention in various concentrations starting from the third vertical row, from which the test substances are diluted in 3-fold steps up to the tenth vertical row 3^7-fold. The test substances are dissolved in DMSO, whereby the final DMSO concentration in the test mixture is 1%. The test mixtures are incubated at 37° C./5% CO2 for five days and, after the addition of 15 μl of Lu164 substrate (5 mg/ml coelenterazine dissolved in 30 μM glutathione/DMSO, 100 mM NaCl, 1M MES, 100 mM glutathione), evaluated by luminometry. The resulting values are in the region of 1 000 000 RLUs (relative light units) for the virus control and 300 to 400 RLUs for the cell control. The EC50 values of the test substances are determined as the concentration at which the virus replication measured in RLUs is 50% of the untreated infected cells.

The next assay deals with T1, reverse transcriptase (Human immunodeficiency virus type 1 group M subtype B, UniProt P03366).
T1 construct: negative control (mixture without reverse transcriptase); purchased Roche Diagnostics GmbH, Mannheim, Germany
Briefly: Biochemical reverse transcriptase assay (Reverse Transcriptase Assay, colorimetric, Roche). The following applies: read-out: IC50 (nM) RT assay. How it is done: The “Reverse Transcriptase Assay, colorimetric” (Roche Diagnostics GmbH, Mannheim, Germany) is used in accordance with the manufacturer's information. The test substances are dissolved in DMSO and are used in the test diluted in 5-fold steps (final DMSO concentration 1%). The resulting values of the photometric evaluation (405/492 nm) are less than 0.1 for the negative control (mixture without reverse transcriptase) and are in the region of 1.5 for the positive control (mixture without test substance). The IC50 values of the test substances are determined as the concentration of the test substance dilution at which the measured optical density is 50% of the positive control.

The next assay relates to HIV-1LAI. The experiment in a line: H9 assay with wild-type HIV-1 (HIV-1LAI supernatant infection, AlamarBlue). It is filed as cell-based. The settings on record: Human immunodeficiency virus 1, H9 cells, 10% FCS. How it is done:
For the mixture for a 96-well MTP, 3 million PBLs are pelleted, suspended in 1 ml of RPMI 1640 medium/10% FCS and incubated together with a suitable amount of HIV-1LAI (NIH AIDS Research & Reference Reagent Program, Germantown, USA) at 37° C. for 2 hours (pellet infection). Unadsorbed viruses are subsequently washed out with PBS, and the infected cells are pelleted again and suspended in 18 ml of RPMI 1640 medium/10% FCS/interleukin-2 (40 U/ml). 180 μl thereof are pipetted into each well of a white 96-well MTP with 20 μl of test substance in suitable dilution. Alternatively, after preparation of the substance dilutions in the MTP, the HIV is pipetted in together with the cells and is not washed out again (supernatant infection). In order to avoid edge effects, the wells at the edge of the MTP are not used for substance dilutions. The second vertical row of the MTP contains only infected cells (virus control) and the eleventh vertical row only uninfected cells (cell control), in each case in RPMI 1640 medium/10% FCS/interleukin-2 (40 U/ml). The other wells of the MTP contain the compounds of the invention in various concentrations starting from the third vertical row, from which the test substances are diluted in 3-fold steps up to the tenth vertical row 3^7-fold. The test substances are dissolved in DMSO, whereby the final DMSO concentration in the test mixture is 1%. The test mixtures are incubated at 37° C./5% CO2. After 5 and 7 days, 50 μl of cell-free supernatant are removed from each well to determine the amount of p24 present by means of a p24 ELISA (HIV-1 p24^CA Antigen Capture Assay Kit, NCI-Frederick Cancer Research and Development Center, Frederick, USA). From the resulting values of the photometric evaluation (450/620 nm) the EC50 values of the test substances are determined as the concentration at which the amount of p24 is 50% of the untreated infected cells.
Alternatively, H9 cells (ATCC, Wesel, Germany) are employed instead of PBLs for testing the test substances. H9 cells are incubated in RPMI 1640 medium with 2% or 10% FCS as a HIV-ILAI supernatant infection at 37° C./5% CO2, (20 μl of substance dilution and 80 μl of cells/virus per well) in accordance with the pattern described above for 5 days. Subsequently, 10 μl of AlamarBlue® (Invitrogen, Karlsruhe, Germany) are added to each well, and the MTPs are incubated at 37° C. for 3 hours before the fluorimetric evaluation takes place (544/590 nm). The resulting values are about 40 000 for the untreated uninfected cells and about 7000 for the untreated infected cells. In the low concentration range, the EC50 values of the test substances are determined as the concentration at which the fluorescence is 50% of the untreated uninfected cells (in each case subtracting the values of the untreated infected cells). In addition, in the high concentration range, the CC50 values of the test substances are determined as the concentration at which the fluorescence is 50% of the untreated uninfected cells (in each case subtracting the values of the untreated infected cells).

A further assay relates to HIV-1NL4-3 K103N-Y181C. The experiment in a line: Light assay with inhibitor-resistant HI reporter virus in MT4 7F2 cells. The class given is cell-based. The following applies: Human immunodeficiency virus 1, read-out: EC50 (nM) MT4 7F2 cells HIV-1NL4-3 K103N-Y181C 2% FCS. As to the method: as §1

Where only a bound is given, the exact number is not on record here.

15 compounds from US8324268B2, “Substituted furancarboxamides, and use thereof” (AiCuris GmbH & Co. KG, priority 2008, dated 2012) can be followed below.

As for `O=C1CN(C(=O)c2cc(-c3cccc(Cl)c3)c(-c3cccc(Cl)c3)o2)CCN1` [Example 30, 4-{[4,5-Bis(3-chlorophenyl)furan-2-yl]carbonyl}piperazin-2-one], the results for the concentration for a half-maximal effect (EC50) in the assay with HIV-1NL4-3 wt, in the assay with HIV-1LAI and in the assay with HIV-1NL4-3 K103N-Y181C were 25 nM, 200 nM and 650 nM, respectively. In addition, on reverse transcriptase, the half-inhibitory concentration (IC50) was 750 nM.

Turning to `N#Cc1cccc(-c2oc(C(=O)N3CC[S+]([O-])C3)cc2-c2cc(F)cc(Cl)c2)c1` (centres unmarked) [Example 3, 3-{3-(3-Chloro-5-fluorophenyl)-5-[(1-oxido-1,3-thiazolidin-3-yl)carbonyl]furan-2-yl}benzenecarbonitrile], the concentration for a half-maximal effect (EC50) in the assay with HIV-1NL4-3 wt is under 1.5 nM; in the assay with HIV-1LAI, 4.5 nM; in the assay on HIV-1NL4-3 K103N-Y181C, 160 nM.

Take `O=C(c1cc(-c2cc(F)cc(Cl)c2)c(-c2ccc(F)c(Cl)c2)o1)N1CC[S+]([O-])C1` (centres unmarked) [Example 4, [5-(3-Chloro-4-fluorophenyl-1)-4-(3-chloro-5-fluorophenyl)furan-2-yl](1-oxido-1,3-thiazolidin-3-yl)methanone]: the 50% effective concentration (EC50) with HIV-1NL4-3 wt was under 1.5 nM; in the assay with HIV-1LAI it was 12 nM; in the assay on HIV-1NL4-3 K103N-Y181C it was 261 nM.

As for `O=C1CN(C(=O)c2cc(-c3cccc(Cl)c3)c(-c3ccc(F)c(Cl)c3)o2)CN1` [Example 25, 1-{[5-(3-Chloro-4-fluorophenyl)-4-(3-chlorophenyl)furan-2-yl]carbonyl}imidazolidin-4-one], the EC50 amounted to 18 nM in the assay on HIV-1NL4-3 wt, 225 nM in the assay on HIV-1LAI and 250 nM with HIV-1NL4-3 K103N-Y181C.

With `O=C(c1cc(-c2cc(F)cc(Cl)c2)c(-c2ccc(F)c(Cl)c2)o1)N1CCSC1` [Example 2, [5-(3-Chloro-4-fluorophenyl)-4-(3-chloro-5-fluorophenyl)furan-2-yl](1,3-thiazolidin-3-yl)methanone], the results for the half-maximal effective concentration (EC50) in the assay on HIV-1NL4-3 wt, with HIV-1LAI and in the assay with HIV-1NL4-3 K103N-Y181C were 40 nM, 135 nM and 1620 nM, respectively.

For `O=C1CN(C(=O)c2cc(-c3cc(F)cc(Cl)c3)c(-c3ccc(F)c(Cl)c3)o2)CN1` [Example 11, 1-{[5-(3-Chloro-4-fluorophenyl)-4-(3-chloro-5-fluorophenyl)furan-2-yl]-carbonyl}imidazolidin-4-one], the figures for the concentration giving a half-maximal response (EC50) in the assay with HIV-1NL4-3 wt, with HIV-1LAI and with HIV-1NL4-3 K103N-Y181C were 20 nM, 77 nM and 255 nM, respectively. At reverse transcriptase, the IC50 worked out at 370 nM.

Take `O=C1CN(C(=O)c2cc(-c3cc(Cl)ccc3F)c(-c3cccc(Cl)c3)o2)CCN1` [Example 13, 4-{[4-(5-Chloro-2-fluorophenyl)-5-(3-chlorophenyl)furan-2-yl]carbonyl}piperazin-2-one]: the concentration giving a half-maximal response (EC50) in the assay on HIV-1NL4-3 wt was determined as 15 nM; in the assay with HIV-1LAI, 160 nM; with HIV-1NL4-3 K103N-Y181C, 325 nM.

Turning to `N#Cc1cccc(-c2oc(C(=O)N3CCNC(=O)C3)cc2-c2cc(F)cc(Cl)c2)c1` [Example 8, 3-{3-(3-Chloro-5-fluorophenyl)-5-[(3-oxopiperazin-1-yl)carbonyl]furan-2-yl}benzenecarbonitrile], the EC50 with HIV-1NL4-3 wt was determined as 1 nM; in the assay with HIV-1LAI, 7 nM; in the assay with HIV-1NL4-3 K103N-Y181C, 160 nM.

In the case of `N#Cc1cc(F)cc(-c2cc(C(=O)N3CCOCC3)oc2-c2cccc(C#N)c2)c1` [Example 34, 3-[2-(3-Cyanophenyl)-5-(morpholin-4-ylcarbonyl)furan-3-yl]-5-fluorobenzenecarbonitrile], the EC50 with HIV-1NL4-3 wt was under 1.5 nM; in the assay with HIV-1LAI it was 30 nM; in the assay on HIV-1NL4-3 K103N-Y181C it was 300 nM.

Turning to `O=C(c1cc(-c2cc(F)cc(Cl)c2)c(-c2ccc(F)c(Cl)c2)o1)N1CCOCC1` [Example 9, [5-(3-Chloro-4-fluorophenyl)-4-(3-chloro-5-fluorophenyl)furan-2-yl](morpholin-4-yl)methanone], the EC50 is 19 nM in the assay on HIV-1NL4-3 wt, 100 nM in the assay with HIV-1LAI and 500 nM in the assay on HIV-1NL4-3 K103N-Y181C.

Consider `N#Cc1cccc(-c2oc(C(=O)N3CNC(=O)C3)cc2-c2cc(F)cc(Cl)c2)c1` [Example 12, 3-{3-(3-Chloro-5-fluorophenyl)-5-[(4-oxoimidazolidin-1-yl)carbonyl]furan-2-yl}benzenecarbonitrile], for which the results for the concentration for a half-maximal effect (EC50) in the assay on HIV-1NL4-3 wt, with HIV-1LAI and in the assay with HIV-1NL4-3 K103N-Y181C were 2 nM, 30 nM and 163 nM, respectively.

With `O=C1CN(C(=O)c2cc(-c3cc(F)cc(Cl)c3)c(-c3ccc(F)c(Cl)c3)o2)CCN1` [Example 7, 4-{[5-(3-Chloro-4-fluorophenyl)-4-(3-chloro-5-fluorophenyl)furan-2-yl]carbonyl}piperazin-2-one], the EC50 was 5 nM in the assay on HIV-1NL4-3 wt, 46 nM in the assay with HIV-1LAI and 186 nM in the assay on HIV-1NL4-3 K103N-Y181C.

Consider `O=C1CN(C(=O)c2cc(-c3cccc(Cl)c3)c(-c3ccc(F)c(Cl)c3)o2)CCN1` [Example 22, 4-{[5-(3-Chloro-4-fluorophenyl)-4-(3-chlorophenyl)furan-2-yl]carbonyl}piperazin-2-one], for which the EC50 in the assay on HIV-1NL4-3 wt was determined as 7 nM; with HIV-1LAI, 113 nM; with HIV-1NL4-3 K103N-Y181C, 185 nM.

`COc1cccc(-c2cc(C(=O)N3CCNC(=O)C3)oc2-c2cccc(Cl)c2)c1` [Example 29, 4-{[5-(3-Chlorophenyl)-4-(3-methoxyphenyl)furan-2-yl]carbonyl}piperazin-2-one]: the 50% effective concentration (EC50) with HIV-1NL4-3 wt is 53 nM; in the assay on HIV-1LAI, 450 nM; in the assay on HIV-1NL4-3 K103N-Y181C it was 400 nM.

Take `O=C1CN(C(=O)c2cc(-c3cccc(Cl)c3)c(-c3ccc(F)c(F)c3)o2)CCN1` [Example 19, 4-{[4-(3-Chlorophenyl)-5-(3,4-difluorophenyl)furan-2-yl]carbonyl}piperazin-2-one]: the EC50 was determined as 43 nM in the assay with HIV-1NL4-3 wt, 250 nM in the assay on HIV-1LAI and 450 nM in the assay with HIV-1NL4-3 K103N-Y181C.
